The text below walks through data of patent US4665087A, “1-(carbamyl, thiocarbamyl, and iminocarbamyl)-indoline derivatives” (Ciba-Geigy Corporation, priority 1985, dated 1987).

By IC50 is commonly meant the concentration that inhibits the measured activity by half.

Counter-ions that a name gives are not always drawn.

The target of test [1] is T1, angiotensin-converting enzyme (Oryctolagus cuniculus, UniProt P12822).
T1 construct: freshly prepared from lungs of adult male rabbits; from tissue; host or cells: lungs of adult male rabbits
T1 sequence (P12822 34-1310): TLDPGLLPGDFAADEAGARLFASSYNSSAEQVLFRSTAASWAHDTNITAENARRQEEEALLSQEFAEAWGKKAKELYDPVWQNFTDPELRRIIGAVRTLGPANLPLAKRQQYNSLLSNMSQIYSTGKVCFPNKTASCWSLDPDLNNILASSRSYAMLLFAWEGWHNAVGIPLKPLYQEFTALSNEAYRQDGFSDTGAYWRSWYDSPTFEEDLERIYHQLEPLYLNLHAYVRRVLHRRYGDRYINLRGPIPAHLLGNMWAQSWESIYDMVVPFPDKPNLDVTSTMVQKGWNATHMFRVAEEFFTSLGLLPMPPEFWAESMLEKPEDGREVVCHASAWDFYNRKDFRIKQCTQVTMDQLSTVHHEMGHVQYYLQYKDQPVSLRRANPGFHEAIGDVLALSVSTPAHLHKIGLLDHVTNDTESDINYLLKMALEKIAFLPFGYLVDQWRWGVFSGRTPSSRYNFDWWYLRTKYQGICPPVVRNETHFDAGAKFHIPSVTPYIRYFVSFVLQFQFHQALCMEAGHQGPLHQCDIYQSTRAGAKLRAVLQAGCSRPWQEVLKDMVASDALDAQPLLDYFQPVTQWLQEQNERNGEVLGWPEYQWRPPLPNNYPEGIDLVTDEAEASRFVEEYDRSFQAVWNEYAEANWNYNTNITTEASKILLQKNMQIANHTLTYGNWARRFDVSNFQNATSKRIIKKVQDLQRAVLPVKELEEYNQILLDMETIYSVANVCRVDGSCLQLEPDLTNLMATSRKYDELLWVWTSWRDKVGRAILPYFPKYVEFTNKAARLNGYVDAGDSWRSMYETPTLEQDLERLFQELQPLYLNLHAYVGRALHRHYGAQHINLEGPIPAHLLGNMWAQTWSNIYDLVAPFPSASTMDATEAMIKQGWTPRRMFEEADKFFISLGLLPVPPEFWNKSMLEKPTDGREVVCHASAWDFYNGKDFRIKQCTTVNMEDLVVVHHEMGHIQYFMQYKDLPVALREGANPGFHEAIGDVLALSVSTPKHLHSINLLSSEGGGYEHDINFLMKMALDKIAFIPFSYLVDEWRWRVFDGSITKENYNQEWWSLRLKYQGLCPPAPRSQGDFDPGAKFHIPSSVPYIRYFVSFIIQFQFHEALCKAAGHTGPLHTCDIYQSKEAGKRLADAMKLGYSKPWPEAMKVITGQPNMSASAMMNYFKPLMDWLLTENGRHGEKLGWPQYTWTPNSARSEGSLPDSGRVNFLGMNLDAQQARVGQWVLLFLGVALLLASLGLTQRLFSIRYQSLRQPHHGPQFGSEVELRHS
Description: in vitro inhibition of the angiotensin-converting enzyme. It counts as biochemical, rabbit. On the procedure:
Biophys. Acta 293, 451 (1973). According to this method said compounds are dissolved at about 1 mM concentrations in phosphate buffer, externally cooled with ice. To these solutions various μl amounts of 1 mM of histidyl-leucine in phosphate buffer are added, followed by 100 μl of 4mM hippuryl-histidyl-leucine in phosphate buffer and 50 μl of the angiotensin-converting enzyme, which is freshly prepared from lungs of adult male rabbits in Tris buffer, containing potassium and magnesium chloride, as well as sucrose. The solutions are incubated at 37° C. for 30 minutes and combined with 0.75 ml or 0.6 N aqueous sodium hydroxide to stop further reaction. Then 100 μl of o-phthalaldehyde are added at room temperature, and 10 minutes later 100 μl of 6N hydrochloric acid. These samples are read against water in a spectrophotometer set at 360 nm, and the optical densities thereof estimated. They are corrected for the standard curve via a conversion factor expressing nanomoles of histidyl-leucine formed during the 30 minute incubation period. The results are plotted against drug concentration to determine the IC50, i.e., the drug concentration which gives half the activity of the control sample containing no drug. Again, representative members of the compounds of this invention are very effective in this in vitro test system, down to IC50 values as low as 5 nM (5×10^-9 M).

In test [2] the test system is angiotensin I pressor response. Description: inhibition of the angiotensin I pressor response in anesthetized normotensive rats. It counts as in vivo. The conditions noted are these: rat, 1.0 mg/kg i.v. On the procedure:
The enzyme renin normally causes specific hydrolysis of the circulating protein renin substrate. This hydrolysis generates angiotensin I, which is further hydrolyzed by the action of said converting enzyme to the potent vasoconstrictor angiotensin II. The inhibition of said enzyme prevents the generation of angiotensin II from I and, therefore, attenuates any pressure response following an angiotensin I challenge.
The corresponding in vivo test is performed with male, normotensive rats, which are anesthetized with 100-120 mg/kg i.p. of sodium ethyl-(1-methylpropyl)-malonylthiourea. A femoral artery and saphenous vein are cannulated for direct blood pressure measurement and i.v. administration of angiotensin I and compounds of this invention. After the basal blood pressure is stabilized, pressor response is to 3 challenge of 0.33 μg/kg of angiotensin I i.v., in 5 minutes intervals, are obtained. Such pressure responses are again obtained 5, 10, 15, 30 and 60 minutes after either i.v., or p.o. administration (stomach tube) of the compounds to be tested, and compared with the initial responses. […]

Regarding `NCCCCN(C[C@@H](CCc1ccccc1)C(=O)O)C(=O)N1c2ccccc2C[C@H]1C(=O)O` [Example 9, 1S-[(R)-N-(2-carboxy-4-phenylbutyl)-N-(4-aminobutyl)carbamoyl]-2,3-dihydroindole-2-carboxylic acid disodium salt], in test [1], the half-maximal inhibitory concentration (IC50) was ~6 nM. The “inhibition of the angiotensin I induced hypertension” value in test [2] is on record as “virtually completely inhibits”.
